In patent US7655665B2, “Nitromethylene derivatives and their use” (East China University of Science and Technology, priority 2004, dated 2010):

Columns and labels:
[1] = system: Aphis craccivoral; assay: Insecticidal activity against Aphis craccivoral by immersing (dipping aphids on bean sprout); assay type: in vivo; conditions: 23° C.
Experimental: (§1) Test on the insecticidal activity of Compound Nos. 1-227
Aphis, which belongs to Homoptera and has a piercing-sucking mouthpart, is a common insect for agricultural plant. Aphis craccivoral was tested by the way of immersing.
Test method: exactly weighed various samples were independently added to N,N-dimethylformamide to form a 10 g/L stock solution. The mixture was diluted with 0.2 mL/L aqueous Triton X-100 solution to a concentration of 500 ug/mL. After stably sucking on bean sprout, the adult aphis without wings together with bean sprout was dipped into 500 ug/mL dilution, taken out after 5 seconds, and the excess dilution was sucked out with bibulous paper and the adult aphis without wings was incubated in clean vessel at a constant temperature of 23° C. Each concentration was repeated for 3 times and the control group contained 0.2 mL/L aqueous Triton X-100 solution. The number of killed aphis was counted after 24 hours to calculate the mortality.

[2] = system: Nilaparvata lugens; assay: Insecticidal activity against Nilaparvata lugens (planthopper) by spraying; assay type: in vivo; conditions: 500 ppm; for mortality (%) (500 ppm) Nilaparvata-lugens: spraying 2 ml per tumbler, killed counted after 24 hours; for mortality (%) (500 ppm) Nilaparvata lugens: spraying 2 ml, counted after 24 hours
Experimental: as §1
Planthopper, which belongs to Homoptera and has a piercing-sucking mouthpart, is a common insect for agricultural plant. Nilaparvata lugens was tested by the way of spraying.
Test method: the test compound was exactly formulated into a solution having a certain concentration and clean water was used as a blank control. Each process was repeated for 3 tumblers (3 times). 2 ml of solution was sprayed uniformly to each tumbler by a mini manual sprayer. 10 Nilaparvata lugens were introduced to every sink 6 hours before spraying. Three series of experiments were conducted. The number of killed Nilaparvata lugens was counted after 24 hours to calculate the mortality.

[3] = 500 ppm (500 ug/mL dilution), dipped 5 seconds, killed aphis counted after 24 hours
[4] = 500 ppm, immersing (dipped 5 seconds), counted after 24 hours

Row | SMILES | mortality (%) (500 ppm) Aphis [1, 3] | mortality (%) (500 ppm) Nilaparvata-lugens [2] | mortality (%) (500 ppm) Aphis [1, 4] | mortality (%) (500 ppm) Nilaparvata lugens [2]
1 | CC(C)(C)CN=C1CCC([N+](=O)[O-])=C2N(Cc3ccc(Cl)nc3)CCCN12 [Compound 211] | 34 | 56 | – | –
2 | COC1CCC([N+](=O)[O-])=C2N(Cc3ccc(Cl)nc3)CCCN21 (centres unmarked) [Compound 72] | – | – | 35 | 100
3 | CCCCCOC1CCC([N+](=O)[O-])=C2N(Cc3cnc(Cl)s3)CCN21 (racemic) [Compound 36] | – | – | 34 | 57
4 | COCCOC1CCC([N+](=O)[O-])=C2N(Cc3cnc(Cl)s3)CCN21 (centres unmarked) [Compound 43] | – | – | 100 | 100
5 | O=[N+]([O-])C1=C2N(Cc3cnc(Cl)s3)CCN2C(OS(=O)(=O)C(F)(F)F)CC1 (centres unmarked) [Compound 157] | – | – | 56 | 100
6 | O=[N+]([O-])C1=C2N(Cc3cnc(Cl)s3)CCN2C(OCC(F)(F)F)CC1 (racemic) [Compound 27] | – | – | 100 | 100
7 | COC1CCC([N+](=O)[O-])=C2N(Cc3cnc(Cl)s3)CCCN21 (centres unmarked) [Compound 86] | – | – | 100 | 100
8 | O=[N+]([O-])C1=C2N(Cc3ccc(Cl)nc3)CCN2C(SCC(F)(F)F)CC1 (centres unmarked) [Compound 135] | – | – | 98 | 100
9 | CN=C1CCC([N+](=O)[O-])=C2N(Cc3cnc(Cl)s3)CCN12 [Compound 213] | 32 | 78 | – | –
10 | CCC(=O)OC1CCC([N+](=O)[O-])=C2N(Cc3ccc(Cl)nc3)CCN21 (centres unmarked) [Compound 114] | – | – | 56 | 88
11 | CC(C)(C)SC1CCC([N+](=O)[O-])=C2N(Cc3ccc(Cl)nc3)CCN21 (centres unmarked) [Compound 142] | – | – | 67 | 88
12 | O=C(OC1CCC([N+](=O)[O-])=C2N(Cc3ccc(Cl)nc3)CCN21)c1ccc(Cl)cc1 (centres unmarked) [Compound 124] | – | – | 22 | 0
13 | CCCN=C1CCC([N+](=O)[O-])=C2N(Cc3cnc(Cl)s3)CCCN12 [Compound 225] | 35 | 78 | – | –
14 | CCCCOC1CCC([N+](=O)[O-])=C2N(CC3CCOC3)CCCN21 (centres unmarked) [Compound 107] | – | – | 7 | 0
15 | CC(C)SC1CCC([N+](=O)[O-])=C2N(Cc3cnc(Cl)s3)CCN21 (centres unmarked) [Compound 176] | 78 | 98 | – | –
16 | CCC(C)OC1CCC([N+](=O)[O-])=C2N(Cc3cnc(Cl)s3)CCN21 (mixture of isomers) [Compound 33] | – | – | 24 | 56
17 | CCOCCOC1CCC([N+](=O)[O-])=C2N(CC3CCOC3)CCN21 (centres unmarked) [Compound 67] | – | – | 100 | 100
18 | CCOCCOC1CCC([N+](=O)[O-])=C2N(Cc3ccc(Cl)nc3)CCCN21 (centres unmarked) [Compound 84] | – | – | 26 | 39
19 | O=[N+]([O-])C1=C2N(CC3CCOC3)CCCN2C(OCC(F)(F)F)CC1 (centres unmarked) [Compound 103] | – | – | 6 | 100
20 | CCCCCN=C1CCC([N+](=O)[O-])=C2N(Cc3ccc(Cl)nc3)CCCN12 [Compound 208] | 35 | 67 | – | –
21 | CCOC1CCC([N+](=O)[O-])=C2N(Cc3cnc(Cl)s3)CCN21 (racemic) [Compound 25] | – | – | 100 | 100
22 | CCCCN=C1CCC([N+](=O)[O-])=C2N(Cc3ccc(Cl)nc3)CCN12 [Compound 194] | 34 | 45 | – | –
23 | CCCOC1CCC([N+](=O)[O-])=C2N(CC3CCOC3)CCN21 (centres unmarked) [Compound 50] | – | – | 100 | 100
24 | O=[N+]([O-])C1=C2N(Cc3cnc(Cl)s3)CCN2C(=NCCCl)CC1 [Compound 215] | 9 | 97 | – | –
25 | CC(C)(C)COC1CCC([N+](=O)[O-])=C2N(Cc3ccc(Cl)nc3)CCN21 (racemic) [Compound 17] | – | – | 100 | 100
